Test results reported in US10399968B2, “Hydroxyalkyl thiadiazole derivatives” (Daiichi Sankyo Company, Limited, priority 2015, dated 2019).
≈ marks a conversion by molar mass, not a printed value. Read-outs that look alike come from different tables or passages of the source.

Key:
P. acnes ATCC 6523 = test: Susceptibility of P. acnes, agar dilution MIC; type: cell-based; conditions: Cutibacterium acnes, ATCC6523, anaerobic
Method: (§1) The antibacterial activity of the compounds of the present invention against P. acnes clinical isolates was tested by the agar dilution method. The assay was carried out according to the CLSI guidelines document (Clinical and Laboratory Standards Institute, 2012 & 2016). The test strains were spread on supplemented Brucella agar (SBA) plates and grown for 42 to 48 hours at 36° C. under anaerobic condition. The test compound dilutions were prepared with Brucella broth and SBA plates containing dilution of test compound were prepared. As an anaerobic growth control and to check the aerobic contamination, plates not containing the test compound were also prepared. Colonies grown on plates were suspended with Brucella broth to adjust the turbidity to 0.5 McFarland using a densitometer. Suspension (1-2 μL) of the test strains was inoculated onto each agar surface by using a bacterial suspension inoculation apparatus (multipoint inoculator). After anaerobic incubation for 42 to 48 hours at 36° C., absence and presence of growth of each strain on growth control plates and test compounds plate were examined with unaided eye. The MIC was determined at which a marked reduction occurs in the appearance of growth on the test plate as compared to that of growth on the anaerobic control plates.

P. acnes IHMA 103740 = test: Susceptibility of P. acnes, agar dilution MIC; type: cell-based; conditions: Cutibacterium acnes, IHMA103740, anaerobic
Method: as §1

P. acnes IHMA 775486 = test: Susceptibility of P. acnes, agar dilution MIC; type: cell-based; conditions: Cutibacterium acnes, IHMA775486, anaerobic
Method: as §1

P. acnes ATCC 6921 = test: Susceptibility of P. acnes, agar dilution MIC; type: cell-based; conditions: Cutibacterium acnes, ATCC6921, anaerobic
Method: as §1

[1] = molecular target: Clostridium difficile DNA gyrase (Clostridioides difficile, UniProt Q18C89); test: DNA supercoiling inhibition assay; type: biochemical; conditions: supercoiling of relaxed pBR322 DNA, 60 minutes at 37° C.
Clostridium difficile DNA gyrase, sequence (Q18C90 entry or part of it): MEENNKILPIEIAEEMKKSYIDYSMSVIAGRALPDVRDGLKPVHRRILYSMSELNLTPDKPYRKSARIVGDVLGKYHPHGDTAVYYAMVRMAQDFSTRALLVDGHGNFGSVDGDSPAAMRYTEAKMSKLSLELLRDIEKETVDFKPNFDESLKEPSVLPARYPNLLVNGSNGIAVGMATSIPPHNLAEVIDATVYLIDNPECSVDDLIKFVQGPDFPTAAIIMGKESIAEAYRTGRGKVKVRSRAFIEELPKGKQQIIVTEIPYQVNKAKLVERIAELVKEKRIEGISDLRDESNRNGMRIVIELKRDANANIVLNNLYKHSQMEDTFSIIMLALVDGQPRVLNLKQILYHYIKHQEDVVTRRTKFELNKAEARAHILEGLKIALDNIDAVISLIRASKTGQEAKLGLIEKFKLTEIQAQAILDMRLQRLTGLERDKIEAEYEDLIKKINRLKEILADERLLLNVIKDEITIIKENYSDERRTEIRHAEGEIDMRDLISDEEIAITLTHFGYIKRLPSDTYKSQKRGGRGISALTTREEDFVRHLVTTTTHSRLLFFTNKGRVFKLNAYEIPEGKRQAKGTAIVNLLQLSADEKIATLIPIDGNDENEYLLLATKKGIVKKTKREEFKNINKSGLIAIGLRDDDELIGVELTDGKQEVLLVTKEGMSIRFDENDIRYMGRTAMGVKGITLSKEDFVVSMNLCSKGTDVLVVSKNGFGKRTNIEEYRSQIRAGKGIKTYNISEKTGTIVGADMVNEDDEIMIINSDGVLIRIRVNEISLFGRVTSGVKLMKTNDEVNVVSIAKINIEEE
Clostridium difficile DNA gyrase, sequence (Q18C89 entry or part of it): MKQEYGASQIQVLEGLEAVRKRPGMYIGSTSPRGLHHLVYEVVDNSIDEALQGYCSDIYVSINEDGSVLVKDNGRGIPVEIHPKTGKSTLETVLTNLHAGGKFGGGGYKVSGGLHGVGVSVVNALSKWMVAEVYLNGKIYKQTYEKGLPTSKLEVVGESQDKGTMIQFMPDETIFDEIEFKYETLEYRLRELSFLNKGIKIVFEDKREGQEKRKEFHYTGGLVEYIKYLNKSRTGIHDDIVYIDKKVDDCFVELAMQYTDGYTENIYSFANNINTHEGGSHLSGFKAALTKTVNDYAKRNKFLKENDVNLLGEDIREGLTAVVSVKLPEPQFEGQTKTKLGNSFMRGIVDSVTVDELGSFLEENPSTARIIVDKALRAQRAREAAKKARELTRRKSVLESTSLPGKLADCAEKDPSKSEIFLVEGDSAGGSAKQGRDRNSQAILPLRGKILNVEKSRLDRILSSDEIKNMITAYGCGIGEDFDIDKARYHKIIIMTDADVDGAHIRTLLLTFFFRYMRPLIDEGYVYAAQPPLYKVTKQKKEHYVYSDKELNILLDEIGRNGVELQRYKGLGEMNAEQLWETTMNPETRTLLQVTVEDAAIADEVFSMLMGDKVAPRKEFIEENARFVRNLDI
Method: DNA supercoiling assays (30 μL reaction) were performed in a buffer containing 15 mM Tris-HCl pH 7.5, 13% glycerol, 6 mM MgCl2, 0.1 mg/mL BSA, 70 mM KCl, 1 mM dithioerythritol, 400 ng of DNA substrate (relaxed pBR322 DNA) and different concentrations of test compounds and/or standards. The dilutions of test compounds and standards were prepared in 20% dimethylsulfoxide (DMSO) and added 3 μL/reaction. The reaction was started by adding 2 μL amounts of Clostridium difficile DNA gyrase into the reaction mixtures and reactions were allowed to proceed for 60 minutes at 37° C. A reaction was carried out by adding 3 μL of 20% DMSO instead of test compound as full reaction control, and another reaction was carried out by adding sterile water instead of the enzyme as no reaction control.
Reactions were stopped by the addition of 5 μL of 6×loading dye and were analyzed by electrophoresis through 1.0% agarose gels with 1×TAE running buffer. Gels were run at 60 V for 3 hours, stained with EtBr, and visualized by Gel Doc system (BioRad). Intensity of the supercoiled DNA bands was quantified, and the IC50 of Clostridium difficile DNA gyrase was calculated using Graph Pad Prism.

[2] = Solubility in water (JP1 / JP2 fluids); type: physicochemical; conditions: thermodynamic from solid
Method: A 10 mmol/L solution of the test compound was prepared in DMSO and dispensed 100 μL of 10 mmol/L DMSO stock solutions into labeled glass tubes in duplicate, one for Japanese Pharmacopeia First Fluid (JP1) and second for Japanese Pharmacopeia Second Fluid (JP2). After evaporation of DMSO from each tube, 500 μL of JP1 and JP2 fluid were added in each tube, respectively. These tubes were sonicated for 1 minute and placed on shaker for 30 minutes with an interval of 30 seconds at every 5 minute. Tubes were placed in dark at room temperature for 1 hour and solution was filtered through membrane filter. The filtrate was diluted 2-fold and 10-fold. The resulting test solutions was analyzed and quantified against the standards using UPLC (standard preparation—10 mmol/L solution in DMSO is serially diluted with 50% aqueous acetonitrile solution to prepare 2 solutions; 100 μmol/L standard solution and 5 μmol/L standard solutions).

[3] = system: Clostridium difficile ATCC 43255; test: Susceptibility of Clostridium difficile, agar dilution MIC; type: cell-based; conditions: Clostridioides difficile, ATCC43255, anaerobic
Method: The antibacterial activity of the compounds of the present invention against Clostridium difficile clinical isolates was tested by the agar dilution method. The assay was carried out according to the CLSI guidelines for managing the procedures of susceptibility tests “M11-A8, Methods for Antimicrobial Susceptibility Testing of Anaerobic Bacteria; Approved Standard-Eighth Edition. CLSI document (2012)”.
The test strains were spread on supplemented Brucella agar (SBA) plates and grown at 36° C. under anaerobic condition for 42 to 48 hours. The test compound dilutions were prepared with Brucella broth and SBA plates containing dilution of test compound were prepared. As an anaerobic growth control, plates not containing the test compound were also prepared. Colonies grown on plates were suspended with Brucella broth to adjust the turbidity to 0.5 McFarland using a densitometer. Suspension (1-2 μL) of the test strains was inoculated onto each agar surface by using a bacterial suspension inoculation apparatus. After anaerobic incubation at 36° C. for 42 to 48 hours, absence and presence of growth of each strain were examined with unaided eye. The MIC was determined at which a marked reduction occurs in the appearance of growth on the test plate as compared to that of growth on the anaerobic control plates.

[4] = system: Clostridium difficile 2009155, a NAP1/027 strain; test: Hamster CDI model; type: in vivo; conditions: 0.3 mg/kg/day by oral route, 5 days
Method: The in vivo efficacy of test compounds were evaluated in a hamster CDI model caused by Clostridium difficile 2009155, a NAP1/027 strain. Syrine hamsters (6-8-weeks old) were primed with a single subcutaneous injection of clindamycin (30 mg/kg) 1-5 days prior to infection. Hamsters were infected by oral gavage with 1 ml of spore suspension ([…]) prepared in PBS. The drug was administered to the hamsters 6 hours post infection by oral or subcutaneous route at an interval of 24 hours for 5 days. The death and survival of the non-treated group and the drug-administered group were recorded once daily for 35 days.

S. aureus ATCC 29213 = test: Susceptibility of bacteria, broth microdilution MIC; type: cell-based; conditions: Staphylococcus aureus, ATCC29213
Method: The antibacterial activity of the compounds of the present invention was tested by the broth microdilution method. The assay was carried out according to the CLSI guidelines for managing the procedures of susceptibility tests: “M7-A7 Methods for Dilution Antimicrobial Susceptibility Tests for Bacteria That Grow Aerobically; Approved Standard-Seventh Edition (2006)”. Test strains were grown on appropriate agar plates overnight. A broth containing the test compound diluted serially 2-fold and diluents were dispensed at 100 μL to each well of a 96-well microplate. As a growth control, a well with a broth not containing the test compound was also prepared. Colonies grown on the plates were suspended in saline, adjusted to 0.5 McFarland (OD625=0.08 to 0.10) using a colorimeter, and then diluted 10-fold with saline. The bacterial suspension was inoculated at 4 μL into each well of the microplate using a bacterial suspension inoculation apparatus. The inoculated microplate was incubated at 35° C. overnight (about 20 hours). The growth condition was observed by the naked eye, and the minimum concentration to inhibit bacterial proliferation was defined as a minimum inhibitory concentration (MIC). The MICs of compounds disclosed herein for E. faecium, Streptococcus pneumoniae and Haemophilus influenzae are shown in Table 2, while for S. aureus in Table 3.

[5] = system: N. gonorrhoeae clinical isolates; test: Susceptibility of N. gonorrhoeae, agar dilution MIC; type: cell-based
Method: The antibacterial activity of the compounds of the present invention against N. gonorrhoeae clinical isolates was tested by the agar dilution method [Clinical and Laboratory Standards Institute, 2016]. The test strains were spread on chocolate agar plates and grown for 20-24 h at 36° C. in 5% carbon dioxide. The test compound dilutions were prepared with broth and agar MIC plates were prepared using GC agar base supplemented with haemoglobin and 1% IsoVitaleX plates. As growth control plates not containing the test compound were also prepared. Colonies grown on plates were suspended with broth to adjust the turbidity to 0.5 McFarland using a densitometer. Suspension (1-2 μL) of the test strains was inoculated onto each agar surface by using a bacterial suspension inoculation apparatus (multipoint inoculator). After aerobic incubation for 20-24 h at 36° C. in 5% carbon dioxide, absence and presence of growth of each strain on growth control plates and test compounds plate were examined with unaided eye. The MIC was determined at which a marked reduction occurs in the appearance of growth on the test plate as compared to that of growth on the aerobic control plates.

[6] = Solubility for oral absorption (background statement); type: physicochemical; conditions: compared to compounds disclosed in this patent application
[7] = Animal infection models (background statement); conditions: in vivo

Row | SMILES | MIC (P. acnes ATCC 6523) [mg/L] | MIC (P. acnes IHMA 103740) [mg/L] | MIC (P. acnes IHMA 775486) [mg/L] | MIC (P. acnes ATCC 6921) [mg/L] | IC50 [1] [µM] | solubility at 30 min ([2]; Japanese Pharmacopeia First Fluid (JP1), pH 1.2, simulated gastric fluid, read-out: Solubility JP1) [mg/mL] | solubility at 30 min ([2]; Japanese Pharmacopeia Second Fluid (JP2), pH 6.8, aqueous buffer, read-out: Solubility JP2) [mg/mL] | MIC [3] [mg/L] | survival on day 35 [4] [%] | MIC (S. aureus ATCC 29213) [mg/L] | MIC [5] [mg/L] | solubility [6] | efficacy in animal infection models [7]
1 | CCc1[nH]c(C(=O)N[C@@H]2CCN(c3nnc(C(C)(O)CO)s3)C[C@@H]2OC)nc1Cl (stereo in doubt) [Compound No. 10, 4-Chloro-N-[(3S,4R)-1-{5-[(2R)-1,2-dihydroxypropan-2-yl]-1,3,4-thiadiazol-2-yl}-3-methoxypiperidin-4-yl]-5-ethyl-1H-imidazole-2-carboxamide] | 0.125 (≈ 0.281 µM) | 0.125 (≈ 0.281 µM) | 0.125 (≈ 0.281 µM) | 0.125 (≈ 0.281 µM) | 0.0607 | 0.887 (≈ 1990 µM) | 0.429 (≈ 964 µM) | 0.06 (≈ 0.135 µM) | 100 | 1 (≈ 2.25 µM) | 0.125 (≈ 0.281 µM) |  | 
2 | CCO[C@H]1CN(c2nncs2)CC[C@H]1NC(=O)c1nc(Cl)c(CC)[nH]1 [Compound No. 150] |  |  |  |  |  |  |  |  |  |  |  | low | not being efficacious
